Data as given in patent US20240059675A1, “PIPERIDINYLPYRIDINYLCARBONITRILE DERIVATIVES AS INHIBITORS OF GLUTAMINYL-PEPTIDE CYCLOTRANSFERASE AND GLUTAMINYL-PEPTIDE CYCLOTRANSFERASE LIKE PROTEIN” (Boehringer Ingelheim International GmbH, priority 2022, published 2024).
pIC50: −log10 of the molar value.

Experiments:
QPCTL = QPCTL (Homo sapiens (Human), UniProt Q9NXS2); assay: Assay A: biochemical QPCTL activity assay (MALDI-TOF MS, CD47 peptide substrate); settings: 0.5 nM enzyme, 10 μM CD47 peptide substrate; read-out: Inhibition of QPCTL: IC50
QPCT = QPCT (Homo sapiens (Human), UniProt Q16769); assay: Assay A: biochemical QPCT activity assay (MALDI-TOF MS, CD47 peptide substrate); settings: 0.5 nM enzyme, 20 μM CD47 peptide substrate; read-out: Inhibition of QPCT: IC50
[1] = system: SIRPα signalling induced by Raji cells; assay: Assay B: SIRPα signalling assay using Raji cells; format: cell-based; settings: Homo sapiens, 48 h compound incubation, Jurkat PathHunter SIRPαV1 reporter cells, read-out: Inhibition of SIRPα signalling induced by Raji cells: IC50
Protocol: (§1) Two cell types are independently used: the Raji cell line (lymphoblast-like human cell line derived from B lymphocytes from a Burkitt's lymphoma patient in 1963) and A549 cells (adenocarcinomic human alveolar basal epithelial cells).
(§2) Test compounds were dissolved in 100% DMSO and serially diluted into a white 384-well microtiter cell culture plate (PerkinElmer #60076780 in case of Raji assay; PDL-coated plates Greiner #781945 in case of A549 assay). 5000 Raji cells (ATCC #CC86) or 5000 A549 cells (ATCC #CCL-185) in Assay Complete Cell Plating reagent 30 (DiscoverX 93-0563R30B) were added per well. The assay plate was incubated for 48 h at 37° C., 95% humidity and 5% CO2. 15000 reporter cells (Jurkat PathHunter SIRPαV1, DiscoverX #93-1135C19) were added to each well, and the plate was incubated for 5 h at 37° C., 95% humidity and 5% CO2. Bioassay reagent 1 of the PathHunter Bioassay detection kit (DiscoverX 93-0001) was added to each well of the plate using a multichannel pipette followed by a 15 min incubation at room temperature. Afterwards bioassay reagent 2 was added followed by 60 min incubation at room temperature (incubation in the dark).
(§3) The analysis of the data was performed using the luminescence signal generated by beta-galactosidase in the PathHunter reporter cell line. The luminescence measurement was done using a Pherastar Multi-Mode Reader. Dose-response curves & IC50 data were calculated with 4-parameter sigmoidal dose response formula.

[2] = system: SIRPα signalling induced by A549 cells; assay: Assay B: SIRPα signalling assay using A549 cells; format: cell-based; settings: Homo sapiens, 48 h compound incubation, Jurkat PathHunter SIRPαV1 reporter cells, read-out: Inhibition of SIRPα signalling induced by A549 cells: IC50
Protocol: as §1, §2, §3

[3] = Assay C: permeability in CACO-2 cells; format: in vitro ADME; settings: human, pH 7.2; for efflux ratio: Caco-2, permeability B-A / permeability A-B; for Papp A→B: Caco-2, apical to basolateral

Chain of QPCTL (Q9NXS2 whole entry): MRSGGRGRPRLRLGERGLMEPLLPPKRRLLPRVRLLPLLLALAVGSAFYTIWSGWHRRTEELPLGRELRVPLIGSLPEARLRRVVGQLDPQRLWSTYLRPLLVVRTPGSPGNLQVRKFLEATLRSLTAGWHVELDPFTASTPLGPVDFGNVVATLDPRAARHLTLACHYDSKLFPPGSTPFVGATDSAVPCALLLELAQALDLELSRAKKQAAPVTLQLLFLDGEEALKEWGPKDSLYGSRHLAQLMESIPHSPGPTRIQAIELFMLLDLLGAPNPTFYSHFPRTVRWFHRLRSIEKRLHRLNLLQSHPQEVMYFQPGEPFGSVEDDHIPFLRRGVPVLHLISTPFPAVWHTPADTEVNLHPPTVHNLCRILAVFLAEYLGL
Chain of QPCT (Q16769 29-361): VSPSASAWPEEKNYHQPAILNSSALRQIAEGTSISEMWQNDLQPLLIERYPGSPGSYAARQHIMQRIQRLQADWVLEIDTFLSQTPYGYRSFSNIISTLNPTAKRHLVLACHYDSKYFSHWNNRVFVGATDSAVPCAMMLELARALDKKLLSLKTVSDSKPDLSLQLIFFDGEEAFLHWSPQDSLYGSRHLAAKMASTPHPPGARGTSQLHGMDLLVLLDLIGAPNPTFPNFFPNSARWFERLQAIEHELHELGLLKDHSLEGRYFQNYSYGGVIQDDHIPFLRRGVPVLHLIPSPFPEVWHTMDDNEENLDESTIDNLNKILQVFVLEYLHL

SMILES | pIC50 (QPCTL) | pIC50 (QPCT) | pIC50 [1] | pIC50 [2] | efflux ratio [3] | Papp A→B [3]
Cn1cnnc1C1(F)CCN(c2c(C#N)ccnc2-c2cnn3ncccc23)CC1 [Example 14] | 7.96 | 8.00 | 6.36 | 6.94 | 0.6 | 41 ×10⁻⁶ cm/s
Cn1cnnc1C1(F)CCN(c2c(C#N)ccnc2-c2cnc3nn(C(C)(C)C)cc3c2)CC1 [Example 8] |  |  | 7.60 | 7.66 |  | 1.3 ×10⁻⁶ cm/s
Cn1cnnc1C1(F)CCN(c2c(C#N)ccnc2-c2cnc3nnc(C(C)(C)C)n3c2)CC1 [Example 12] | 8.70 | 8.70 | 7.28 | 7.51 | 11.2 | 2.5 ×10⁻⁶ cm/s
Cn1cnnc1C1(F)CCN(c2c(C#N)ccnc2-c2cnc3nc(C(C)(C)C)cn3c2)CC1 [Example 13] | 9.00 | 9.00 | 7.19 | 7.66 | 35 | 1 ×10⁻⁶ cm/s
COc1cc(-c2nccc(C#N)c2N2CCC(c3nncn3C)CC2)cnc1F [Example 5] | 8.70 | 7.89 | 6.46 | 7.36 | 14 | 2 ×10⁻⁶ cm/s
Cn1cnnc1C1(F)CCN(c2c(C#N)ccnc2-c2cncc(C3CC3)c2)CC1 [Example 20] | 7.68 | 7.54 | 5.71 | 6.47 |  | 
CC(C)Oc1cc(-c2nccc(C#N)c2N2CCC(c3nncn3C)CC2)cnc1F [Example 4] | 9.00 | 7.92 | 6.74 | 7.42 | 5.9 | 8.5 ×10⁻⁶ cm/s
Cn1cnnc1C1(F)CCN(c2c(C#N)ccnc2-c2cncc(-n3cccn3)c2)CC1 [Example 19] | 8.70 | 8.00 | 6.29 | 7.74 | 6.5 | 4.9 ×10⁻⁶ cm/s
Cn1cnnc1C1(F)CCN(c2c(C#N)ccnc2-c2cnc3nc(C(F)(F)F)cn3c2)CC1 [Example 15] | 9.00 | 9.00 | 7.23 | 7.48 | 14.1 | 0.9 ×10⁻⁶ cm/s
Nc1ncc(C2CCN(c3ncccc3-c3ccc(F)nc3)CC2)s1 [Example 1094, reference compound] |  |  | 5.49 |  |  | 
Cn1cnnc1C1CCN(c2c(-c3ccc(F)nc3)ccnc2C#N)CC1 [Example 9] | 8.40 | 7.59 | 5.96 |  | 7.8 | 1.8 ×10⁻⁶ cm/s
C=CCOc1cc(-c2nccc(C#N)c2N2CCC(F)(c3nncn3C)CC2)cnc1F [Example 28] | 8.70 | 8.52 | 6.74 | 7.48 |  | 
Cn1cnnc1C1CCN(c2ncccc2-c2cccnc2)CC1 [SEN180, reference compound] |  |  | 5.53 | 6.06 |  | 
Cn1cnnc1C1(F)CCN(c2c(C#N)ccnc2-c2ccc(F)nc2)CC1 [Example 1] |  |  | 6.77 | 7.29 |  | 28 ×10⁻⁶ cm/s
Cn1cnnc1C1(F)CCN(c2c(C#N)ccnc2-c2cnc3nn(C(C)(C)C(F)(F)F)cc3c2)CC1 [Example 29] |  |  | 7.09 | 7.89 | 15.2 | 2.5 ×10⁻⁶ cm/s
Cn1cnnc1C1(F)CCN(c2c(C#N)ccnc2-c2cnc3nn(C4(C(F)(F)F)CC4)cc3c2)CC1 [Example 30] | 8.70 | 8.70 | 7.06 | 7.33 | 54.9 | 0.5 ×10⁻⁶ cm/s
Nc1nnc(C2CCN(c3ncccc3-c3ccc(F)nc3)CC2)s1 [Example 1095, reference compound] |  |  | 5.66 | 6.79 |  | 
Cn1cnnc1C1CCN(c2ncccc2-c2ccc(F)nc2)CC1 [SEN177, reference compound] |  |  | 5.86 | 6.67 |  | 
Cn1cnnc1C1(F)CCN(c2c(C#N)ccnc2-c2cnc(F)c(OCC3CC3)c2)CC1 [Example 26] |  |  | 6.99 | 8.15 | 1.7 | 45 ×10⁻⁶ cm/s
Cn1cnnc1C1(F)CCN(c2c(C#N)ccnc2-c2cnc(F)c(OC3CC3)c2)CC1 [Example 27] | 8.52 | 8.30 | 6.75 | 7.41 | 2 | 36 ×10⁻⁶ cm/s
Cn1cnnc1C1(F)CCN(c2c(C#N)ccnc2-c2cnc3nn(C(C)(C)c4ccc(F)cc4)cc3c2)CC1 [Example 32] | 9.00 | 9.00 | 8.22 | 8.52 | 12.6 | 3.5 ×10⁻⁶ cm/s
Cn1cnnc1C1(F)CCN(c2c(C#N)ccnc2-c2cnc3nn(C4(C)CC(F)(F)C4)cc3c2)CC1 [Example 31] | 8.70 | 8.52 | 6.75 | 7.68 | 27.6 | 1.7 ×10⁻⁶ cm/s

The remaining lines, values ahead:

pIC50 (QPCTL) | pIC50 (QPCT) | pIC50 [1] | pIC50 [2] | efflux ratio [3] | Papp A→B [3] | SMILES
8.40 | 8.10 | 6.45 |  | 5.6 | 11 ×10⁻⁶ cm/s | Cn1cnnc1C1(F)CCN(c2c(-c3ccc(F)nc3)ccnc2C#N)CC1 [Example 10]
8.22 | 7.49 | 5.78 | 6.94 |  |  | Cn1cnnc1C1(F)CCN(c2c(C#N)ccnc2-c2cnc(F)c(F)c2)CC1 [Example 23]
8.00 | 7.52 | 5.79 | 7.36 |  |  | Cn1cnnc1C1(F)CCN(c2c(C#N)ccnc2-c2cnsc2)CC1 [Example 25]
8.70 | 7.77 | 6.61 | 7.22 | 3.5 | 4.8 ×10⁻⁶ cm/s | Cn1cnnc1C1CCN(c2c(C#N)ccnc2-c2ccc(F)nc2)CC1 [Example 2]
8.10 | 7.64 | 6.32 | 6.95 | 1.4 | 41 ×10⁻⁶ cm/s | Cn1cnnc1C1(F)CCN(c2c(C#N)ccnc2-c2cnc(F)c(Cl)c2)CC1 [Example 18]
9.00 | 8.40 | 7.07 | 8.10 | 1.7 | 40 ×10⁻⁶ cm/s | Cc1cc(C#N)c(N2CCC(F)(c3nncn3C)CC2)c(-c2ccc(F)nc2)n1 [Example 16]
8.70 | 7.92 | 6.67 | 7.57 | 3.3 | 18 ×10⁻⁶ cm/s | COc1cc(-c2nccc(C#N)c2N2CCC(F)(c3nncn3C)CC2)cnc1F [Example 7]
8.40 | 8.10 | 7.04 | 7.31 | 1.3 | 38 ×10⁻⁶ cm/s | Cn1cnnc1C1(F)CCN(c2c(C#N)cc(C(F)(F)F)nc2-c2ccc(F)nc2)CC1 [Example 17]
9.00 | 8.52 | 6.49 | 7.66 |  |  | Cn1cc2cc(-c3nccc(C#N)c3N3CCC(F)(c4nncn4C)CC3)cnc2n1 [Example 21]
7.85 | 7.96 | 5.74 | 6.63 | 11.6 | 3.1 ×10⁻⁶ cm/s | Cn1cnnc1C1(C)CCN(c2c(-c3ccc(F)nc3)ccnc2C#N)CC1 [Example 11]
8.52 | 7.92 | 6.19 | 6.99 | 10 | 0.2 ×10⁻⁶ cm/s | Cn1cnnc1C1(F)CCN(c2c(C#N)ccnc2-c2ccnnc2)CC1 [Example 22]
7.74 | 7.51 | 5.75 | 6.16 |  |  | Cn1cnnc1C1(F)CCN(c2c(C#N)ccnc2-c2cn[nH]c2)CC1 [Example 24]
8.70 | 8.10 | 6.72 | 7.47 | 2.3 | 34 ×10⁻⁶ cm/s | Cc1cc(-c2nccc(C#N)c2N2CCC(F)(c3nncn3C)CC2)cnc1F [Example 6]
8.70 | 8.70 | 6.33 | 7.54 | 8.4 | 4.9 ×10⁻⁶ cm/s | Cn1cnnc1C1(C)CCN(c2c(C#N)ccnc2-c2ccc(F)nc2)CC1 [Example 3]
